Data taken from patent US20100075852A1, “HERBICIDE COMBINATION COMPRISING DIMETHOXYTRIAZINYL-SUBSTITUTED DIFLUOROMETHANESULFONYLANILIDES” (BAYER CROPSCIENCE AG, priority 2008, published 2010).
Where two headings read alike, the source gives them in different places.

Key:
Test in all cases: Post-emergence action against weeds, greenhouse pot test, visual scoring
Format in all cases: in vivo
[1] = system: Pharbitis purpurea (PHBPU); details: 21 DAT
Description: (§1) Seeds or rhizome pieces of mono- and dicotyledonous harmful and useful plants were placed in peat pots (diameter 4 cm) filled with sandy loam and then covered with soil. The pots were kept in a greenhouse under optimum conditions. In addition, harmful plants encountered in paddy rice cultivation were cultivated in pots with a water level 2 cm above the soil surface.
(§2) About three weeks after the start of the cultivation, the test plants were treated at the 2- to 3-leaf stage. The herbicides, formulated as powder or liquid concentrates, were, either alone or in the combinations according to the invention, sprayed in various dosages on to the green parts of the plants using an application rate of 600 l of water/ha (converted). For further cultivation of the plants, the pots were then again kept under optimum conditions in a greenhouse.
(§3) The visual scoring of the herbicidal effects was carried out in intervals up to 21 days after the treatment. Scoring was carried out in percent in comparison to the untreated control plants. 0%=no herbicidal activity, 100%=complete herbicidal activity=complete kill.
(§4) The percentages from the treatments with the herbicides alone (=individual application) and with the combinations according to the invention (=mixtures) were employed to calculate interactions using the method of Colby.
(§5) • A, B=activity of components A and B in percent at a dosage of a and b g of ai/ha (=gramm of active substance per hectare), respectively. • E=expected value in % at a dosage of a+b g of ai/ha.

[2] = system: Triticum aestivum (TRZAS)
Description: as §1, §2, §3, §4, §5

Avena fatua (AVEFA) = details: for (7) activity found: AVEFA, 21 DAT; for inhibition at 8 g/ha: Avena fatua, post-emergence, read-out: % activity found
Description: as §1, §2, §3, §4, §5

Stellaria media (STEME) = details: 10 DAT
Description: as §1, §2, §3, §4, §5

Veronica persica (VERPE) = details: 21 DAT
Description: as §1, §2, §3, §4, §5

[3] = system: Fallopia (ex Polygonum) convolvulus (POLCO); details: for (7) activity found: POLCO, 21 DAT
Description: as §1, §2, §3, §4, §5

Viola tricolor (VIOTR) = details: rate (6) B7-4 40
Description: as §1, §2, §3, §4, §5

[4] = system: Abuthilon theophrasti (ABUTH); details: 21 DAT, rate (6) B7-4 120
Description: as §1, §2, §3, §4, §5

[5] = system: Matricaria inodora (MATIN); details: for (7) activity found: MATIN, 21 DAT
Description: as §1, §2, §3, §4, §5

Zea mays (ZEAMX) = details: for (7) activity found: ZEAMX; for inhibition at 24 g/ha: Zea mays, post-emergence, read-out: % activity found
Description: as §1, §2, §3, §4, §5

[6] = system: Lolium multiflorum (LOLMU); details: for (7) activity found: LOLMU, 10 DAT
Description: as §1, §2, §3, §4, §5

Oryza sativa (ORYSA) = details: read-out: % activity found
Description: as §1, §2, §3
(§6) The percentages from the treatments with the herbicides alone (=individual application) and with the combinations according to the invention (=mixtures) were employed to calculate interactions using the method of Colby. When the observed efficacies of the mixtures exceed the formal sum of the values of the tests with individual applications, they also exceed the expected value according to Colby, which is calculated using the formula below (cf. S. R. Colby; in Weeds 15 (1967) pp. 20 to 22):
as §5

Setaria viridis (SETVI) = details: 504 h, read-out: % activity found
Description: as §1, §2, §3, §6, §5

[7] = system: Alopecurus myosuroides (ALOMY); details: read-out: % activity found
Description: as §1, §2, §3, §6, §5

[8] = Fallopia convolvulus, post-emergence, 504 h, read-out: % activity found
[9] = Tripleurospermum inodorum, post-emergence, 504 h, read-out: % activity found
[10] = Lolium multiflorum, post-emergence, 240 h, read-out: % activity found

CCN(CC)C(=O)n1cnc(S(=O)(=O)c2c(C)cc(C)cc2C)n1 [B7-4, N,N-diethyl-3-[(2,4,6-trimethylphenyl)sulfonyl]-1H-1,2,4-triazole-1-carboxamide]
(7) activity found ([1]; rate (6) B7-4 40): 20%
(7) activity found ([1]; rate (6) B7-4 120): 20%
(7) activity found ([2]; 10 DAT, rate (6) B7-4 40): 0%
(7) activity found ([2]; 21 DAT, rate (6) B7-4 40): 0%
(7) activity found ([2]; 21 DAT, rate (6) B7-4 120): 0%
(7) activity found (Avena fatua (AVEFA); rate (6) B7-4 40 (Table 78)): 0%
(7) activity found (Avena fatua (AVEFA); rate (6) B7-4 40 (Table 79)): 0%
(7) activity found (Avena fatua (AVEFA); rate (6) B7-4 120): 30%
(7) activity found (Stellaria media (STEME); rate (6) B7-4 40): 10%
(7) activity found (Stellaria media (STEME); rate (6) B7-4 120): 10%
(7) activity found (Veronica persica (VERPE); rate (6) B7-4 40): 0%
(7) activity found (Veronica persica (VERPE); rate (6) B7-4 120): 0%
(7) activity found ([3]; rate (6) B7-4 40 (Table 82)): 30%
(7) activity found ([3]; rate (6) B7-4 40 (Table 83)): 30%
(7) activity found ([3]; rate (6) B7-4 120): 50%
(7) activity found (Viola tricolor (VIOTR); 10 DAT): 0%
(7) activity found (Viola tricolor (VIOTR); 21 DAT): 0%
(7) activity found [4]: 20%
(7) activity found ([5]; rate (6) B7-4 40): 0%
(7) activity found ([5]; rate (6) B7-4 120): 0%
(7) activity found (Zea mays (ZEAMX); 10 DAT, rate (6) B7-4 40): 10%
(7) activity found (Zea mays (ZEAMX); 21 DAT, rate (6) B7-4 40): 0%
(7) activity found (Zea mays (ZEAMX); 21 DAT, rate (6) B7-4 120): 0%
(7) activity found ([6]; rate (6) B7-4 40): 0%
(7) activity found ([6]; rate (6) B7-4 120): 40%

Cc1nn(C)c(O)c1C(=O)c1ccc(C(F)(F)F)cc1S(C)(=O)=O [B1-6, (5-hydroxy-1,3-dimethyl-1H-pyrazol-4-yl)[2-(methylsulfonyl)-4-(trifluoromethyl)phenyl]methanone]
inhibition at 8 g/ha (Avena fatua (AVEFA); 240 h): 0%
inhibition at 8 g/ha (Avena fatua (AVEFA); 504 h): 0%
inhibition at 8 g/ha [3, 8]: 50%
inhibition at 24 g/ha [3, 8]: 60%
inhibition at 8 g/ha [5, 9]: 20%
inhibition at 24 g/ha [5, 9]: 30%
inhibition at 24 g/ha (Zea mays (ZEAMX); 240 h): 0%
inhibition at 24 g/ha (Zea mays (ZEAMX); 504 h): 0%
inhibition at 8 g/ha [6, 10]: 0%
inhibition at 24 g/ha [6, 10]: 0%
inhibition at 8 g/ha ([6]; Lolium multiflorum, post-emergence, 504 h, read-out: % activity found): 0%
inhibition at 8 g/ha (Oryza sativa (ORYSA); 240 h): 50%
inhibition at 8 g/ha (Oryza sativa (ORYSA); 504 h): 40%
inhibition at 24 g/ha (Oryza sativa (ORYSA); 504 h): 70%
inhibition at 8 g/ha (Setaria viridis (SETVI)): 0%
inhibition at 24 g/ha (Setaria viridis (SETVI)): 0%
inhibition at 8 g/ha ([7]; 240 h): 0%
inhibition at 24 g/ha ([7]; 240 h): 0%
inhibition at 8 g/ha ([7]; 504 h): 0%
inhibition at 24 g/ha ([7]; 504 h): 0%
